# Measurements as given in patent US8580825B2, “Oxadiazole inhibitors of leukotriene production” (Boehringer Ingelheim International GmbH, priority 2010, dated 2013).
# Legend:
# [1] = biological target: T1, recombinant human FLAP protein (Homo sapiens, UniProt P20292); assay: FLAP binding assay (Scintillation Proximity Assay, displacement of [125I]L-691,831); conditions: for IC50: read-out: FLAP SPA IC50
# T1 construct: made in house; host or cells: Sf9 insect cells (100,000xg membrane fraction used)
# T1 sequence (P20292 1-161): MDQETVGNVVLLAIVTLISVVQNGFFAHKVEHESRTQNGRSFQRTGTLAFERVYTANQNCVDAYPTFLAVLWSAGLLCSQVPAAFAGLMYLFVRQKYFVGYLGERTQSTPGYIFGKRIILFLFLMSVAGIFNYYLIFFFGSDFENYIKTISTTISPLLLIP
# Description: Compounds are assessed for the ability to bind to FLAP in a binding assay that measures compound-specific displacement of an iodinated (^125I) FLAP inhibitor via a Scintillation Proximity Assay format (adapted from S. Charleson et al., Mol. Pharmacol., 1992, 41, 873-879).
# Cell pellets produced from sf9 insect cells expressing recombinant human FLAP protein are resuspended in buffer A [15 mM Tris-HCl (pH 7.5), 2 mM MgCl2, 0.3 mM EDTA, 1 mM PMSF]. The cells are lysed with a Dounce homogenizer and the material is centrifuged at 10,000×g for 10 minutes. The supernatant is then collected and centrifuged at 100,000×g for 60 minutes. To prepare membrane protein for an assay, an aliquot of the 100,000×g pellet is resuspended in 1 ml of buffer A, Dounce homogenized, and finally subjected to polytron mixing (30 seconds). Membrane protein (25 μl, 5 μg) is mixed with WGA SPA beads (Amersham) and stirred for 1 h. […] (final concentrations: beads, 200 μg/well; protein, 5 μg/well; [^125I] probe, 0.08 nM/well (17 nCi/well). The plates are shaken for 2 h before reading on a Microbeta plate reader. Non-specific binding is determined by the addition of 10 μM cold L-691,831 compound.
# [2] = test system: synthesis of LTB4 in human whole blood; assay: human whole blood LTB4 production inhibition assay; type: cell-based; conditions: calcimycin stimulated, read-out: hWB LTB4 IC50
# Description: Compounds are additionally tested in a human whole blood assay to determine their ability to inhibit the synthesis of LTB4 in a cellular system. Compounds are combined with heparinized human whole blood and incubated for 15 minutes at 37° C. Calcimycin (20 μM final, prepared in phosphate-buffered saline, pH 7.4) is then added and the mixture is incubated for another 30 minutes at 37° C. The samples are centrifuged for 5 min at low speed (1500×g) and the plasma layer is removed. Plasma LTB4 concentrations are then measured using an antibody-based homogenous time-resolved fluorescence method (CisBio, Bedford, Mass.).
IC50 [1],IC50 [2],inhibition at 1 µM ([1]; read-out: FLAP SPA inhibition at 1 uM),Compound
27 nM,54 nM,,"CNc1cnc(-c2ccc([C@](C)(c3noc(-c4cnn(CC(C)(C)O)c4)n3)C3CC3)cn2)cn1 [Example 156, 1-[4-(3-{(R)-1-Cyclopropyl-1-[6-(5-methylamino-pyrazin-2-yl)-pyridin-3-yl]-ethyl}-[1,2,4]oxadiazol-5-yl)-pyrazol-1-yl]-2-methyl-propan-2-ol]"
15 nM,23 nM,,"C[C@@](c1ccc(-c2cnc(N)cn2)nc1)(c1noc(-c2cnn(C3COC3)c2)n1)C1CC1 [Example 160, 5-(5-{(R)-1-Cyclopropyl-1[5-(1-oxetan-3-yl-1H-pyrazol-4-yl)-[1,2,4]oxadiazol-3-yl]-ethyl}-pyridin-2-yl)-pyrazin-2-ylamine]"
3 nM,160 nM,,"CC(C)[C@](C)(c1ccc(-c2cnc(N)nc2)nc1)c1noc(-c2cnc(N3CCNCC3)cn2)n1 [Example 51, 5-{5-[(2R)-3-methyl-2-{5-[5-(piperazin-1-yl)pyrazin-2-yl]-1,2,4-oxadiazol-3-yl}butan-2-yl]pyridin-2-yl}pyrimidin-2-amine]"
3.9 nM,110 nM,,"CC(C)C(C)(c1ccc(-c2cnc(N)nc2)nc1)c1noc(-c2cn[nH]c2)n1 (stereo not shown) [Example 73, 5-(5-{3-methyl-2-[5-(1H-pyrazol-4-yl)-1,2,4-oxadiazol-3-yl]butan-2-yl}pyridin-2-yl)pyrimidin-2-amine]"
8.3 nM,68 nM,,"CC(C)[C@](C)(c1ccc(-c2cnc(N)nc2)nc1)c1noc(-c2cnn(CC(=O)NC(C)(C)C)c2)n1 [Example 141, 2-[4-(3-{(R)-1-[6-(2-Amino-pyrimidin-5-yl)-pyridin-3-yl]-1,2-dimethyl-propyl}-1,2,4-oxadiazol-5-yl)-pyrazol-1-yl]-N-tert-butyl-acetamide]"
22 nM,100 nM,,"COCCn1cc(-c2nc([C@@](C)(c3ccc(-c4ccc(N)nc4)nc3)C3CC3)no2)cn1 [Example 138, 5-((R)-1-Cyclopropyl-1-{5-[1-(2-methoxy-ethyl)-1H-pyrazol-4-yl]-[1,2,4]oxadiazol-3-yl}-ethyl)-[2,3′]bipyridinyl-6′-ylamine]"
72 nM,220 nM,,"CO[C@@H]1CCN(C(=O)Cn2cc(-c3nc([C@@](C)(c4ccc(-c5cnc(N)nc5)nc4)C4CC4)no3)cn2)C1 [Example 107, 2-[4-(3-{(R)-1-[6-(2-Amino-pyrimidin-5-yl)-pyridin-3-yl]-1-cyclopropyl-ethyl}-[1,2,4]oxadiazol-5-yl)-pyrazol-1-yl]-1-((R)-3-methoxy-pyrrolidin-1-yl)-ethanone]"
24 nM,110 nM,,"C[C@@](c1ccc(-c2ccc(N)nc2)nc1)(c1noc(-c2cnn(C3COC3)c2)n1)C1CC1 [Example 115, 5-{(R)-1-Cyclopropyl-1-[5-(1-oxetan-3-yl-1H-pyrazol-4-yl)-[1,2,4]oxadiazol-3-yl]-ethyl}-[2,3′]bipyridinyl-6′-ylamine]"
51.2 nM,570 nM,,"CC(C)C(C)(c1ccc(-c2cnc(N)nc2)nc1)c1noc(-c2cn(C)cn2)n1 (stereo not shown) [Example 21, 5-(5-{3-methyl-2-[5-(1-methyl-1H-imidazol-4-yl)-1,2,4-oxadiazol-3-yl]butan-2-yl}pyridin-2-yl)pyrimidin-2-amine]"
168 nM,> 5000 nM,,"CC(C)[C@@](C)(c1ccc(-c2cnc(N)nc2)nc1)c1noc(-c2cnn(CC(C)(C)O)c2)n1 [Example 37, 1-[4-(3-{(2S)-2-[6-(2-aminopyrimidin-5-yl)pyridin-3-yl]-3-methylbutan-2-yl}-1,2,4-oxadiazol-5-yl)-1H-pyrazol-1-yl]-2-methylpropan-2-ol]"
400 nM,3900 nM,,"CC(C)C(C)(c1ccc(-c2cnc(N)nc2)nc1)c1noc(N2CCNCC2)n1 (stereo not shown) [Example 26, 5-(5-{3-methyl-2-[5-(piperazin-1-yl)-1,2,4-oxadiazol-3-yl]butan-2-yl}pyridin-2-yl)pyrimidin-2-amine]"
56 nM,82 nM,,"CNc1ncc(-c2ccc([C@](C)(c3noc(-c4cnn(CC(C)(C)O)c4)n3)C3CC3)cn2)cn1 [Example 165, 1-[4-(3-{(R)-1-Cyclopropyl-1-[6-(2-methylamino-pyrimidin-5-yl)-pyridin-3-yl]-ethyl}-[1,2,4]oxadiazol-5-yl)-pyrazol-1-yl]-2-methyl-propan-2-ol]"
9.4 nM,53 nM,,"CC(C)[C@](C)(c1ccc(-c2cnc(N)nc2)nc1)c1noc(-c2cnn(CC(=O)N(C)CC3CCCO3)c2)n1 (stereo partly drawn) [Example 146, 2-[4-(3-{(R)-1-[6-(2-Amino-pyrimidin-5-yl)-pyridin-3-yl]-1,2-dimethyl-propyl}-1,2,4-oxadiazol-5-yl)-pyrazol-1-yl]-N-methyl-N-(tetrahydro-furan-2-ylmethyl)-acetamide]"
16 nM,33 nM,,"Cn1cc(-c2nc([C@@](C)(c3ccc(-c4cnc(N)nc4)nc3)C3CC3)no2)cn1 [Example 57, 5-(5-{(1R)-1-cyclopropyl-1-[5-(1-methyl-1H-pyrazol-4-yl)-1,2,4-oxadiazol-3-yl]ethyl}pyridin-2-yl)pyrimidin-2-amine]"
34 nM,65 nM,,"Cn1cc(-c2nc(C(C)(c3ccc(-c4cnc(N)cn4)nc3)C3CC3)no2)cn1 (stereo not shown) [Example 181, 5-(5-{1-Cyclopropyl-1-[5-(1-methyl-1H-pyrazol-4-yl)-[1,2,4]oxadiazol-3-yl]-ethyl}-pyridin-2-yl)-pyrazin-2-ylamine]"
1.2 nM,32 nM,,"CC(C)[C@](C)(c1ccc(-c2cnc(N)nc2)nc1)c1noc(-c2cn[nH]c2)n1 [Example 43, 5-(5-{(2R)-3-methyl-2-[5-(1H-pyrazol-4-yl)-1,2,4-oxadiazol-3-yl]butan-2-yl}pyridin-2-yl)pyrimidin-2-amine]"
9.2 nM,51 nM,,"CC(C)[C@](C)(c1ccc(-c2cnc(N)nc2)nc1)c1noc(-c2cnn(CC(=O)N(C)C(C)(C)C)c2)n1 [Example 143, 2-[4-(3-{(R)-1-[6-(2-Amino-pyrimidin-5-yl)-pyridin-3-yl]-1,2-dimethyl-propyl}-1,2,4-oxadiazol-5-yl)-pyrazol-1-yl]-N-tert-butyl-N-methyl-acetamide]"
230 nM,502 nM,,"CC(C)(O)Cn1cc(-c2nc(C(C)(c3ccc(-c4cnc(N)c(F)c4)nc3)C3CC3)no2)cn1 (stereo not shown) [Example 158, 1-(4-{3-[1-(6′-Amino-5′-fluoro-[2,3′]bipyridinyl-5-yl)-1-cyclopropyl-ethyl]-[1,2,4]oxadiazol-5-yl}-pyrazol-1-yl)-2-methyl-propan-2-ol]"
32 nM,150 nM,,"CN(C)CCn1cc(-c2nc([C@@](C)(c3ccc(-c4cnc(N)nc4)nc3)C3CC3)no2)cn1 [Example 99, 5-[5-((R)-1-Cyclopropyl-1-{5-[1-(2-dimethylamino-ethyl)-1H-pyrazol-4-yl]-[1,2,4]oxadiazol-3-yl}-ethyl)-pyridin-2-yl]-pyrimidin-2-ylamine]"
,2900 nM,45%,"CN(C)C(=O)Cn1cc(-c2nc([C@](C)(c3ccc(-c4cnc(N)nc4)nc3)C3CC3)no2)cn1 [Example 84, 2-[4-(3-{(1S)-1-[6-(2-aminopyrimidin-5-yl)pyridin-3-yl]-1-cyclopropylethyl}-1,2,4-oxadiazol-5-yl)-1H-pyrazol-1-yl]-N,N-dimethylacetamide]"
